# Reference: ChEMBL document CHEMBL5126578, “Organocatalyzed umpolung addition for synthesis of heterocyclic-fused arylidene-imidazolones as anticancer agents” (Bioorg Med Chem, 2022)
# Active and inactive are the calls of the source. The calls are words filed in the database; no cut-off is given here.
# Key:
# MCF7 [1] = test: Antiproliferative activity against human MCF7 cells assessed as reduction in cell viability incubated for 48 hrs by MTT assay; type: functional, cell-based; settings: MCF7, 48 h
# MCF7 [2] = test: Inhibition of human DNA topoisomerase activity in human MCF cells nuclear lysate assessed mediated supercoiled plasmid DNA relaxation by analyzing migration of supercoiled DNA at 0.5 uM by agarose gel electrophoresis; type: subcellular
# [3] = Cytotoxicity against human MCF-10A cells assessed as reduction in cell viability for 48 hrs by MTT assay; type: toxicity, cell-based
# HEK-293T = test: Antiproliferative activity against human HEK293T cells assessed as reduction in cell viability for 48 hrs by MTT assay; type: functional, cell-based
# [4] = Antiproliferative activity against human H357 cells assessed as reduction in cell viability for 48 hrs by MTT assay; type: functional, cell-based; settings: H357, 48 h
# MDA-MB-231 [5] = test: Antiproliferative activity against human MDA-MB-231 cells for 48 hrs by MTT assay; type: functional, cell-based; settings: MDA-MB-231, 48 h
# HeLa = test: Antiproliferative activity against human HeLa cells for 24 hrs by MTT assay; type: functional, cell-based
# [6] = target: Epidermal growth factor receptor (Homo sapiens, UniProt P00533); test: Inhibition of EGFR (unknown origin) assessed as kinase activity by measuring ATP remaining for 40 mins in presence of ATP by Kinase-Glo Plus luminescence kinase assay
# [7] = Antiproliferative activity against VEGF-stimulated human Endothelial cells pre-incubated for 2 hrs followed by stimulation with human VEGF, bFGF and FBS for 18 hrs and measured after 28 hrs by AlamarBlue assay; type: functional, cell-based; settings: Endothelial cell
# MCF7 [8] = test: Induction of apoptosis in human MCF7 cells assessed as fold change as decrease in BCL-XL protein expression level at 3.8 uM by Western blot analysis; type: functional
# MCF7 [9] = test: Inhibition of human DNA topoisomerase activity in human MCF cells nuclear lysate assessed mediated supercoiled plasmid DNA relaxation by analyzing migration of supercoiled DNA at 1 uM by agarose gel electrophoresis; type: subcellular
# MDA-MB-231 [10] = test: Antiproliferative activity against human MDA-MB-231 cells assessed as reduction in cell viability for 48 hrs by MTT assay; type: functional, cell-based; settings: MDA-MB-231, 48 h
# MCF7 [11] = test: Induction of cell cycle arrest in human MCF7 cells assessed as accumulation at S phase at 3.8 uM for 48 hrs by PI staining based flow cytometry (Rvb=4.6%); type: functional
# MCF7 [12] = test: Induction of apoptosis in human MCF7 cells assessed as increase in number of apoptotic nuclei at 3.8 to 5 uM for 48 hrs by DAPI staining based fluorescence microscopy; type: functional, cell-based; settings: dose 3.8-5 µM
# MCF7 [13] = test: Induction of apoptosis in human MCF7 cells assessed as fold change as increase in Bax protein expression level at 3.8 uM by Western blot analysis; type: functional
# MCF7 [14] = test: Induction of apoptosis in human MCF7 cells assessed as fold change as increase in Bax protein expression level at 5 uM by Western blot analysis; type: functional
# MCF7 [15] = test: Induction of apoptosis in human MCF7 cells assessed as fold change as decrease in BCL-XL protein expression level at 5 uM by Western blot analysis; type: functional
# MCF7 [16] = test: Induction of cell cycle arrest in human MCF7 cells assessed as accumulation at G2/M phase at 3.8 uM for 48 hrs by PI staining based flow cytometry (Rvb= 21.4%); type: functional
# MCF7 [17] = test: Induction of cell cycle arrest in human MCF7 cells assessed as accumulation at G1 phase at 3.8 uM for 48 hrs by PI staining based flow cytometry (Rvb= 73.1%); type: functional
# MCF7 [18] = test: Induction of cell cycle arrest in human MCF7 cells assessed as accumulation at Sub-G1 phase at 3.8 uM for 48 hrs by PI staining based flow cytometry (Rvb= 0.9%); type: functional
# MCF7 [19] = test: Induction of apoptosis in human MCF7 cells assessed as upregulation of Caspase-3 expression level at 3.8 to 5 uM by TRIT-C staining based fluorescence microscopy; type: functional, cell-based; settings: dose 3.8-5 µM
# MCF7 [20] = test: Induction of apoptosis in human MCF7 cells assessed as fold change as decrease in BCL-XL protein expression level at 5.5 uM by Western blot analysis; type: functional
# MCF7 [21] = test: Induction of cell cycle arrest in human MCF7 cells assessed as accumulation at Sub-G1 phase at 4.2 uM for 48 hrs by PI staining based flow cytometry (Rvb= 0.9%); type: functional
# MCF7 [22] = test: Induction of apoptosis in human MCF7 cells assessed as increase in number of apoptotic nuclei at 4.2 to 5.5 uM for 48 hrs by DAPI staining based fluorescence microscopy; type: functional, cell-based; settings: dose 4.2-5.5 µM
# MCF7 [23] = test: Induction of apoptosis in human MCF7 cells assessed as fold change as increase in Bax protein expression level at 5.5 uM by Western blot analysis; type: functional
# MCF7 [24] = test: Induction of cell cycle arrest in human MCF7 cells assessed as accumulation at G1 phase at 4.2 uM for 48 hrs by PI staining based flow cytometry (Rvb= 73.1%); type: functional
# MCF7 [25] = test: Induction of apoptosis in human MCF7 cells assessed as fold change as increase in Bax protein expression level at 4.2 uM by Western blot analysis; type: functional
# MCF7 [26] = test: Induction of cell cycle arrest in human MCF7 cells assessed as accumulation at S phase at 4.2 uM for 48 hrs by PI staining based flow cytometry(Rvb= 4.6%); type: functional
# MCF7 [27] = test: Inhibition of human DNA topoisomerase activity in human MCF cells nuclear lysate assessed mediated supercoiled plasmid DNA relaxation by analyzing migration of supercoiled DNA at 0.9 uM by agarose gel electrophoresis; type: subcellular
# MCF7 [28] = test: Induction of apoptosis in human MCF7 cells assessed as upregulation of Caspase-3 expression level at 4.2 to 5.5 uM by TRIT-C staining based fluorescence microscopy; type: functional, cell-based; settings: dose 4.2-5.5 µM
# MCF7 [29] = test: Induction of apoptosis in human MCF7 cells assessed as fold change as decrease in BCL-XL protein expression level at 4.2 uM by Western blot analysis; type: functional
# MCF7 [30] = test: Induction of cell cycle arrest in human MCF7 cells assessed as accumulation at G2/M phase at 4.2 uM for 48 hrs by PI staining based flow cytometry (Rvb= 21.4%); type: functional
# Chain of Epidermal growth factor receptor (P00533 whole entry): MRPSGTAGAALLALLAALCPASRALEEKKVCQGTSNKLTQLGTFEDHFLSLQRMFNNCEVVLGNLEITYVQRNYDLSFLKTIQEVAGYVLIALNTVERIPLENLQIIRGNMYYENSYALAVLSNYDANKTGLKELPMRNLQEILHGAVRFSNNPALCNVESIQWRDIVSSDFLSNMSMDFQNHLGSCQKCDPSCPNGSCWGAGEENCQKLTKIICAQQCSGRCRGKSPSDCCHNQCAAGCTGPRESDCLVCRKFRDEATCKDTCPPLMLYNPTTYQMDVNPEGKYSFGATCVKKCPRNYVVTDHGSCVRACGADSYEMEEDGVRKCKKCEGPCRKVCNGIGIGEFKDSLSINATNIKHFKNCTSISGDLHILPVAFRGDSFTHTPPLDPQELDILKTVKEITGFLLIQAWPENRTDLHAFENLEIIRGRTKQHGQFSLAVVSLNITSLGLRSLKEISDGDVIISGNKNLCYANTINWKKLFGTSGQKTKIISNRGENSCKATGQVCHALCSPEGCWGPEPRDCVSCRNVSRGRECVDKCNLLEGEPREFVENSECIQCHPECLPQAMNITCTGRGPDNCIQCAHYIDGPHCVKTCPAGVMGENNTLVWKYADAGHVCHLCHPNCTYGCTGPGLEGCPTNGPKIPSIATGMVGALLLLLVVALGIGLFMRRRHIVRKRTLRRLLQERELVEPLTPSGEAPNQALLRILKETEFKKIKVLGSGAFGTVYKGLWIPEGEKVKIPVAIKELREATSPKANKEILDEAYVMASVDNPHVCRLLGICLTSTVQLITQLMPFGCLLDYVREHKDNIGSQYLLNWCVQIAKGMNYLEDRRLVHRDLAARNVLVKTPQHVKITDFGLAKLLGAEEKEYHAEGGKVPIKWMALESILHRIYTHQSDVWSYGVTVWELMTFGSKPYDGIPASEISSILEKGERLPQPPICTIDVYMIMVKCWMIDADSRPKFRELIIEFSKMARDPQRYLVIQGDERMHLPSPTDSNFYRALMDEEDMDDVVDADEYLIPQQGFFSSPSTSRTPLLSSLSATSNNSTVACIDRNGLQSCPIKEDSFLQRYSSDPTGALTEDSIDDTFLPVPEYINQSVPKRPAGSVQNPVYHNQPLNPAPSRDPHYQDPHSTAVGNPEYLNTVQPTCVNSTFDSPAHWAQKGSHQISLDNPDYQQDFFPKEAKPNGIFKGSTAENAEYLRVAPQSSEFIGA
structure (smiles),measurement,setting,value
CCOC(=O)Oc1c(OC)cc(/C=C2\N=C3C=C(OC)C=CN3C2=O)cc1OC,IC50,MCF7 [1],8.9 µM
O=C1/C(=C/c2ccccc2)N=C2C(Br)=CC(Br)=CN12,IC50,MCF7 [1],10 µM
O=C1/C(=C/c2ccccc2)N=C2C(O)=CC=CN12,IC50,MCF7 [1],9.7 µM
COc1cc([C@@H]2c3cc4c(cc3[C@@H](O[C@@H]3O[C@@H]5CO[C@@H](C)O[C@H]5[C@H](O)[C@H]3O)[C@H]3COC(=O)[C@H]23)OCO4)cc(OC)c1O [ETOPOSIDE],inhibition,MCF7 [2],Active
same,IC50 at 48 h,[3],102 µM
same,IC50,HEK-293T,28 µM
same,IC50,[4],32 µM
COc1ccc(/C=C2\N=C3C(O)=CC=CN3C2=O)cc1,IC50,MCF7 [1],10 µM
COC1=CC(OC)=NC2=N/C(=C\c3ccccc3)C(=O)N12,IC50,MCF7 [1],9.7 µM
O=C1/C(=C/c2ccc(Cl)cc2)N=C2C(O)=CC=CN12,IC50,MCF7 [1],5.2 µM
COC1=CC2=N/C(=C\c3ccc(OC)cc3)C(=O)N2C=C1,IC50,MCF7 [1],9.8 µM
O=C1/C(=C/c2ccccc2)N=C2N=CC=CN12,IC50,MCF7 [1],9.9 µM
COc1ccc2c(c1)sc1nc(/C=C/C(=O)c3ccc(OC)c(O)c3)cn12,IC50,MDA-MB-231 [5],1.2 µM
COc1ccc(/C=C2\N=C3Sc4cccc(OC)c4N3C2=O)cc1,IC50,MCF7 [1],7.8 µM
O=C(Cc1csc2nc3ccccc3n12)Nc1cccc2ccccc12,IC50,HeLa,0.42 µM
same,IC50,[6],55 µM
COC1=CC2=N/C(=C\c3cc(OC)c(OC)c(OC)c3)C(=O)N2C=C1,IC50,MCF7 [1],10 µM
COc1cccc2c1N1C(=O)/C(=C/c3ccccc3)N=C1S2,IC50,MCF7 [1],4.5 µM
O=C1/C(=C/c2ccccc2)N=C2Sc3cc(Br)ccc3N12,IC50,MCF7 [1],9.7 µM
CC1=CC=CN2C(=O)/C(=C/c3ccccc3)N=C12,IC50,MCF7 [1],9.8 µM
COC1=CC2=N/C(=C\c3ccccc3)C(=O)N2C=C1,IC50,MCF7 [1],9.9 µM
CCN(CC)CCOc1cccc(-c2cn3c(n2)sc2ccccc23)c1,IC50,[7],0.0039 µM
O=C1/C(=C/c2ccccc2)N=C2Sc3cccc(O)c3N12,fold change (FC),MCF7 [8],2
same,IC50,MCF7 [1],3.8 µM
same,inhibition,MCF7 [9],Active
same,IC50,MDA-MB-231 [10],4 µM
same,Activity,MCF7 [11],36.4%
same,IC50 at 48 h,[3],35 µM
same,Activity,MCF7 [12],Active
same,fold change (FC),MCF7 [13],2
same,fold change (FC),MCF7 [14],5
same,fold change (FC),MCF7 [15],10
same,Activity,MCF7 [16],17.2%
same,IC50,HEK-293T,4.2 µM
same,Activity,MCF7 [17],37.5%
same,Activity,MCF7 [18],8.9%
same,IC50,[4],4.8 µM
same,Activity,MCF7 [19],Active
O=C1/C(=C/c2ccccc2)N=C2C=CC([N+](=O)[O-])=CN12,IC50,MCF7 [1],9 µM
O=C(Cc1csc2nc3ccccc3n12)Nc1cccc(O)c1,IC50,HeLa,0.42 µM
same,IC50,[6],55 µM
O=C1/C(=C/c2ccccc2)N=C2Sc3ccccc3N12,IC50,MCF7 [1],9.4 µM
O=C1/C(=C/c2ccccc2)N=C2C([N+](=O)[O-])=CC(Br)=CN12,IC50,MCF7 [1],10 µM
O=C1/C(=C/c2ccccc2)N=C2C=C(O)C=CN12,IC50,MCF7 [1],9.2 µM
COc1ccc(/C=C2\N=C3Sc4cccc(O)c4N3C2=O)cc1,IC50,MCF7 [1],7.5 µM
O=C1/C(=C/c2ccc(Cl)cc2)N=C2Sc3cccc(O)c3N12,fold change (FC),MCF7 [20],10
same,IC50,MCF7 [1],4.2 µM
same,Activity,MCF7 [21],4.3%
same,Activity,MCF7 [22],Active
same,IC50,MDA-MB-231 [10],5.4 µM
same,fold change (FC),MCF7 [23],6
same,Activity,MCF7 [24],61.3%
same,IC50 at 48 h,[3],40 µM
same,fold change (FC),MCF7 [25],3.5
same,Activity,MCF7 [26],24.8%
same,inhibition,MCF7 [27],Active
same,Activity,MCF7 [28],Active
same,IC50,HEK-293T,5.8 µM
same,fold change (FC),MCF7 [29],2.5
same,Activity,MCF7 [30],9.6%
same,IC50,[4],5 µM
COc1ccc2c(c1)SC1=N/C(=C\c3ccccc3)C(=O)N12,IC50,MCF7 [1],10 µM
Cc1cccc2c1N1C(=O)/C(=C/c3ccccc3)N=C1S2,IC50,MCF7 [1],9.8 µM
O=C1/C(=C/c2ccccc2)N=C2C=CC=CN12,IC50,MCF7 [1],9.8 µM
CC1=CN2C(=O)/C(=C/c3ccccc3)N=C2C=C1,IC50,MCF7 [1],10 µM
